Where a name gives a salt, the structure may show the parent alone.
Columns and labels:
[1] = biological target: ATP-binding cassette sub-family C member 2 (Homo sapiens, UniProt Q92887); assay: Inhibition of human MRP2 overexpressed in Sf9 cell membrane vesicles assessed as uptake of [3H]-estradiol-17beta-D-glucuronide in presence of ATP and GSH measured after 20 mins by membrane vesicle transport assay
[2] = biological target: ATP-binding cassette sub-family C member 3 (Homo sapiens, UniProt O15438); assay: Inhibition of human MRP3 overexpressed in Sf9 insect cell membrane vesicles assessed as uptake of [3H]-estradiol-17beta-D-glucuronide in presence of ATP and GSH measured after 10 mins by membrane vesicle transport assay; type: ADME, cell-based
[3] = biological target: T1, ATP-binding cassette sub-family C member 4 (Homo sapiens, UniProt O15439); assay: Inhibition of human MRP4 overexpressed in Sf9 cell membrane vesicles assessed as uptake of [3H]-estradiol-17beta-D-glucuronide in presence of ATP and GSH measured after 20 mins by membrane vesicle transport assay; type: ADME, cell-based
T1 sequence (O15439 whole entry): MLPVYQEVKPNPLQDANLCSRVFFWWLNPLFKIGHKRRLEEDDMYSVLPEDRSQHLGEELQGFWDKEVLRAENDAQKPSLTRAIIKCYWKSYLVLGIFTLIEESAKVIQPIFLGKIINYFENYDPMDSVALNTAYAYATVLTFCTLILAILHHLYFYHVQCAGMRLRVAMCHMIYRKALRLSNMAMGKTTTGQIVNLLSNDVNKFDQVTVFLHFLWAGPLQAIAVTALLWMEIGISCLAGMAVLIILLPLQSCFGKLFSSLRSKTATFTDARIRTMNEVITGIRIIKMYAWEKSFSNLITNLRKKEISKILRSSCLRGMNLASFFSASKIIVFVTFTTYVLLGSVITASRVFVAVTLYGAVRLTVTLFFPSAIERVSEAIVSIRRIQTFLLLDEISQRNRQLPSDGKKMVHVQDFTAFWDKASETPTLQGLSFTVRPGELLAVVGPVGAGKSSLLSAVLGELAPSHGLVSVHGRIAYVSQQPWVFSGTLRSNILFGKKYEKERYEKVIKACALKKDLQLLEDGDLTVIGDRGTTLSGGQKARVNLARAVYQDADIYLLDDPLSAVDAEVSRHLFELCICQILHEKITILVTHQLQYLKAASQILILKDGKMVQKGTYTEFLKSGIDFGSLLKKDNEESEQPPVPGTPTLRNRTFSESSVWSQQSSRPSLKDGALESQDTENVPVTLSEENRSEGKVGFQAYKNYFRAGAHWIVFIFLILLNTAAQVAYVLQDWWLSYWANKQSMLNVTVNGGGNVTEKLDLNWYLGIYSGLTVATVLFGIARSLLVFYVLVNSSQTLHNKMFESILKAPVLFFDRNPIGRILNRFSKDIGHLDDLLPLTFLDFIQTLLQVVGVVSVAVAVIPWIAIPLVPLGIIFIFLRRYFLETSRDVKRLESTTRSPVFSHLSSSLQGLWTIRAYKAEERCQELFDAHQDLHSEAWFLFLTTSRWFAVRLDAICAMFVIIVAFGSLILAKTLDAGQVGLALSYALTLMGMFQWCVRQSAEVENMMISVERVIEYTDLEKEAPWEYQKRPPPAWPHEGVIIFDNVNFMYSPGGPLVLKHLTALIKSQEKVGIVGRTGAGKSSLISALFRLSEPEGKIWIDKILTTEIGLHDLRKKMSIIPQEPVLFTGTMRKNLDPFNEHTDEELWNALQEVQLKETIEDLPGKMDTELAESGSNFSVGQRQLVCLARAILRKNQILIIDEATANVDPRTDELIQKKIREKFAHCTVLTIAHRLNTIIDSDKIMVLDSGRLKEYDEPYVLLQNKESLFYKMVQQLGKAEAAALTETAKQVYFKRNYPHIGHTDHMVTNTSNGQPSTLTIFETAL

Bile salt export pump = Bile salt export pump (Homo sapiens, UniProt O95342); assay: Inhibition of human BSEP overexpressed in Sf9 cell membrane vesicles assessed as uptake of [3H]-taurocholate in presence of ATP measured after 15 to 20 mins by membrane vesicle transport assay; type: ADME, cell-based
Chain of Bile salt export pump (O95342 whole entry): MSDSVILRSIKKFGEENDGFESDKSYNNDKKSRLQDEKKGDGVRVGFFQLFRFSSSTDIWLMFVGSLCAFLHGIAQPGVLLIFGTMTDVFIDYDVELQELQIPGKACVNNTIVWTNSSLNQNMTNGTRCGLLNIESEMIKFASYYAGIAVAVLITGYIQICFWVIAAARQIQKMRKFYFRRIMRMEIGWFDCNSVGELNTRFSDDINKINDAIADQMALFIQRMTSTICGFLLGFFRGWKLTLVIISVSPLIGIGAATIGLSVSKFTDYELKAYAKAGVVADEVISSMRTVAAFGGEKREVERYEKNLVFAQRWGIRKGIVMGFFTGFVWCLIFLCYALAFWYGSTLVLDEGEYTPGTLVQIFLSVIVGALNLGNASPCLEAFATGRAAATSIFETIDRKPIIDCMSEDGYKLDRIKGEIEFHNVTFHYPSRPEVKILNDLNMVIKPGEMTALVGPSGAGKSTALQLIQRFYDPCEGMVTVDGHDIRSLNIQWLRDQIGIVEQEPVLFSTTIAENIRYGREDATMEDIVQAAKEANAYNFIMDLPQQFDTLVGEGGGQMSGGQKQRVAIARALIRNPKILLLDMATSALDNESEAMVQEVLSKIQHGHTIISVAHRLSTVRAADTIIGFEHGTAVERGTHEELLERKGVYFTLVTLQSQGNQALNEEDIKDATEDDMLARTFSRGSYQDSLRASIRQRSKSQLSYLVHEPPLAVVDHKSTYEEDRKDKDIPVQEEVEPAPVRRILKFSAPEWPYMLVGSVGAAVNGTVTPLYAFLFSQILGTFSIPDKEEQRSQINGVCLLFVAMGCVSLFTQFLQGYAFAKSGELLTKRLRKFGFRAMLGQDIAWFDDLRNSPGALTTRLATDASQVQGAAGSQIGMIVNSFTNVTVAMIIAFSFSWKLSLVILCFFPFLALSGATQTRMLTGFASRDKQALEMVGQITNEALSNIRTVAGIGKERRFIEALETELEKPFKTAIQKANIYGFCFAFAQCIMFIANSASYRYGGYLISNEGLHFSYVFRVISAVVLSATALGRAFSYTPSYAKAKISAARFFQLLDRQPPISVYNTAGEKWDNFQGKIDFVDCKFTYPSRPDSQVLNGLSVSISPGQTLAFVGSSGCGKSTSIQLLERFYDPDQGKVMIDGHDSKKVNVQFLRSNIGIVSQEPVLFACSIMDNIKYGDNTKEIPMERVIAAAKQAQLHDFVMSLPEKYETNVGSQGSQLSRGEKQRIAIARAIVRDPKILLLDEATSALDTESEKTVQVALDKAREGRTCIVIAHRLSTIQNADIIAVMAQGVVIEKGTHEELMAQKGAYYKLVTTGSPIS

Chain of ATP-binding cassette sub-family C member 3 (O15438 whole entry): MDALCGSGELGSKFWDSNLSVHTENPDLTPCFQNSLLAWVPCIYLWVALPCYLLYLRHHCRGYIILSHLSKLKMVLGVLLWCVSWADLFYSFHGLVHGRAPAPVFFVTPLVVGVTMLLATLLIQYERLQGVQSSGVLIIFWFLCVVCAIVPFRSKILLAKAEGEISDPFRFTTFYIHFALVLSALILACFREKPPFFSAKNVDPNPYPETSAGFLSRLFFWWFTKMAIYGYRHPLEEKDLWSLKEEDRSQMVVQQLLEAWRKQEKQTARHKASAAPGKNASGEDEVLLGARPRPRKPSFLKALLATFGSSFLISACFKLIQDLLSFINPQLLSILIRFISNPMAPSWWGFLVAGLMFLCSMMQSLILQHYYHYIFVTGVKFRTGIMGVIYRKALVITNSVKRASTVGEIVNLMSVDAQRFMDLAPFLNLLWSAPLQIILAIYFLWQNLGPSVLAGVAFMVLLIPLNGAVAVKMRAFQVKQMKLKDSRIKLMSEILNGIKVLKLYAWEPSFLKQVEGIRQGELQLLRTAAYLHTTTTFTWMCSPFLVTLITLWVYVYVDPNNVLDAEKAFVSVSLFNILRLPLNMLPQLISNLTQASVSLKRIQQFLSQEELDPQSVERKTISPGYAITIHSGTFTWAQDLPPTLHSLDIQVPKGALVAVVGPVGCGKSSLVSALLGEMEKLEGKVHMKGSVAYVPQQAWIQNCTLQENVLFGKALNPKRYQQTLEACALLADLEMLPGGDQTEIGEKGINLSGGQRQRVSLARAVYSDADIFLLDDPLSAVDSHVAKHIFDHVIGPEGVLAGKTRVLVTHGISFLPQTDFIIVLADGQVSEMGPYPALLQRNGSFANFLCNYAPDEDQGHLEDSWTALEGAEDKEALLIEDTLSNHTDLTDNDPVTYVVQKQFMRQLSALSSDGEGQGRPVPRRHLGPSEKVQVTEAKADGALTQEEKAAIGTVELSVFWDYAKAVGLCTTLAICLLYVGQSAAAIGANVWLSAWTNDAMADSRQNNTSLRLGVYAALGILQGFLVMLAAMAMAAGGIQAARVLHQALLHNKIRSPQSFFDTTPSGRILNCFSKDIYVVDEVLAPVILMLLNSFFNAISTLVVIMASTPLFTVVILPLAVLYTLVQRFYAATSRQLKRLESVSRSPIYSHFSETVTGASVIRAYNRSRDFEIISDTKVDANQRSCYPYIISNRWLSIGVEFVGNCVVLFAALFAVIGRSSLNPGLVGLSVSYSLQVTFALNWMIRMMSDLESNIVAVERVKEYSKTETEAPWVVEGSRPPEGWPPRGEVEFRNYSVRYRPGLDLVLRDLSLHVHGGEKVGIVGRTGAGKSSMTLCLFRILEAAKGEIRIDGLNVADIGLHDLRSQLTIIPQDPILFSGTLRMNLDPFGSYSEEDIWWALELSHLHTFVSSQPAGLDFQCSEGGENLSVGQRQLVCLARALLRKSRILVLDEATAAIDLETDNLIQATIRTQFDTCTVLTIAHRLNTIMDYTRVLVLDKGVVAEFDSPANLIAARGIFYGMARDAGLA
Chain of ATP-binding cassette sub-family C member 2 (Q92887 whole entry): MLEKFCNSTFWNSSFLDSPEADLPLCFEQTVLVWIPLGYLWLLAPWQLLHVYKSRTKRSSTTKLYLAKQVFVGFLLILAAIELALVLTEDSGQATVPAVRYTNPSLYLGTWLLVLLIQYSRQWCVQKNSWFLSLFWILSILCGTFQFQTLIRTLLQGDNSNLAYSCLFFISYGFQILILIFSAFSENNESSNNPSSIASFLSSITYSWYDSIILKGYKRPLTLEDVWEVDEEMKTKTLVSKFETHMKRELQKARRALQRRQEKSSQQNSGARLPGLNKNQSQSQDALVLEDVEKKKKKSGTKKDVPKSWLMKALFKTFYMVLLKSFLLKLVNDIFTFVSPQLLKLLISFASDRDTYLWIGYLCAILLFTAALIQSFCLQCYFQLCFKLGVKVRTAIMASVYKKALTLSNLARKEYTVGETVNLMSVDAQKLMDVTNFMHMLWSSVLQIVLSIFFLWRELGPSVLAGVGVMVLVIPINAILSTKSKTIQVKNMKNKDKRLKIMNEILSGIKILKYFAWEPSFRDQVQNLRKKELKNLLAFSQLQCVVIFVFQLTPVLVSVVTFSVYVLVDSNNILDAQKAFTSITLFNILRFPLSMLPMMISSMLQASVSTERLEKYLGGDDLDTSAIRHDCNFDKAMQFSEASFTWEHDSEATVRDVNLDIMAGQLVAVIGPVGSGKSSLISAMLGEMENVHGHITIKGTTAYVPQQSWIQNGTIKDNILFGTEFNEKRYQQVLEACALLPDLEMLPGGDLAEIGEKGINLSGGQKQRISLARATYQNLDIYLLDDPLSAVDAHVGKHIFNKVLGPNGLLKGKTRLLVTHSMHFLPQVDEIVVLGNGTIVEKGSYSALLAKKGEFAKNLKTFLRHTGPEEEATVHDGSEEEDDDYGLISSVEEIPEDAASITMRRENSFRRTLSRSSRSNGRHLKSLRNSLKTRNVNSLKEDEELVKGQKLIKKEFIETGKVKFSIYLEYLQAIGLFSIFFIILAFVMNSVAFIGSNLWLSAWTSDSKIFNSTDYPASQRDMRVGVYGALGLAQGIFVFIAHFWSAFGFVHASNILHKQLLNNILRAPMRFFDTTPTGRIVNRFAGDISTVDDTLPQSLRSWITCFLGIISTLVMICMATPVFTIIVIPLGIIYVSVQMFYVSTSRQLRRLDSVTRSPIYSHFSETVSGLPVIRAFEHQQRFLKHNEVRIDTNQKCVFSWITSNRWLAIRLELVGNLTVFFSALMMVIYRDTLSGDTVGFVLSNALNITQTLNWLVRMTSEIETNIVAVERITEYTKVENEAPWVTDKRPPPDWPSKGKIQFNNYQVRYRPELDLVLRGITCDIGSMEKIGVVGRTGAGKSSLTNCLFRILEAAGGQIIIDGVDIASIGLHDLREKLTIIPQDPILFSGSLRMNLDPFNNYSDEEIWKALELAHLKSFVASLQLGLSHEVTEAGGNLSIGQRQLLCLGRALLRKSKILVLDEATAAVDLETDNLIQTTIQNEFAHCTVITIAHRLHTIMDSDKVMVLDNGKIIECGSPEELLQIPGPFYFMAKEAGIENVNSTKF

SMILES | IC50 [1] [µM] | IC50 [2] [µM] | IC50 [3] [µM] | IC50 (Bile salt export pump) [µM]
Clc1ccc2nsnc2c1NC1=NCCN1 [TIZANIDINE] | > 133 | > 133 | > 133 | > 133
N[C@@H](Cc1ccc(O)c(O)c1)C(=O)O [LEVODOPA] | > 133 | > 133 | > 133 | > 133
CC(C(=O)O)c1ccc2c(c1)Cc1cccnc1O2 (configuration not stated) [PRANOPROFEN] | > 133 | > 133 | 9.8 | > 133
CCCCN1CCCCC1C(=O)Nc1c(C)cccc1C (configuration not stated) [BUPIVACAINE HYDROCHLORIDE] | > 133 | > 133 | > 133 | > 133
Nc1nc(=O)n([C@@H]2CS[C@H](CO)O2)cc1F [EMTRICITABINE] | > 133 | > 133 | > 133 | > 133
CS(=O)(=O)c1ccc([C@@H](O)[C@@H](CO)NC(=O)C(Cl)Cl)cc1 [THIAMPHENICOL] | > 133 | > 133 | > 133 | > 133
C=CC(N)CCC(=O)O (configuration not stated) [VIGABATRIN] | > 133 | > 133 | > 133 | > 133
CCC[C@H](N[C@@H](C)C(=O)N1[C@H](C(=O)O)C[C@@H]2CCCC[C@@H]21)C(=O)OCC [PERINDOPRIL ERBUMINE] | > 133 | > 133 | > 133 | > 133
CCOC(=O)O[C@]1(C(=O)OCCl)CC[C@H]2[C@@H]3CCC4=CC(=O)C=C[C@]4(C)[C@H]3[C@@H](O)C[C@@]21C [LOTEPREDNOL ETABONATE] | > 133 | 15.5 | > 133 | 40.4
O=NN(CCCl)C(=O)NCCCl [CARMUSTINE] | > 133 | > 133 | > 133 | > 133
CS(=O)(=O)c1ccc(C2=C(c3ccccc3)C(=O)OC2)cc1 [ROFECOXIB] | > 133 | > 133 | > 133 | > 133
C=CCCCCCCCCC(=O)O [UNDECYLENIC ACID] | > 133 | > 133 | 63.9 | > 133
O=C1NCCN1CCN1CCC(c2cn(-c3ccc(F)cc3)c3ccc(Cl)cc23)CC1 [SERTINDOLE] | > 133 | > 133 | > 133 | 82.7
CC(C)C(=O)Nc1ccc([N+](=O)[O-])c(C(F)(F)F)c1 [FLUTAMIDE] | > 133 | > 133 | > 133 | > 133
CCOC(=O)C1=C[C@@H](OC(CC)CC)[C@H](NC(C)=O)[C@@H](N)C1 [OSELTAMIVIR PHOSPHATE] | > 133 | > 133 | > 133 | > 133
NC(=O)CC[C@@H]1NC(=O)[C@H](Cc2ccccc2)NC(=O)[C@H](Cc2ccc(O)cc2)NC(=O)CCSSC[C@@H](C(=O)N2CCC[C@H]2C(=O)N[C@H](CCCN=C(N)N)C(=O)NCC(N)=O)NC(=O)[C@H](CC(N)=O)NC1=O [DESMOPRESSIN ACETATE] | > 133 | > 133 | > 133 | > 133
CCOc1cc2ncc(C#N)c(Nc3ccc(OCc4ccccn4)c(Cl)c3)c2cc1NC(=O)/C=C/CN(C)C [NERATINIB] | > 133 | > 133 | 23 | 25
CC(C)c1ccc2oc3nc(N)c(C(=O)O)cc3c(=O)c2c1 [AMLEXANOX] | > 133 | > 133 | 2.2 | 104
CCN(CC)CCOc1ccc2c(c1)C(=O)c1cc(OCCN(CC)CC)ccc1-2 [TILORONE] | > 133 | > 133 | > 133 | > 133

SMILES | IC50 [1] [µM] | IC50 [2] [µM] | IC50 [3] [µM] | IC50 (Bile salt export pump) [µM]
S=P(N1CC1)(N1CC1)N1CC1 [THIOTEPA] | > 133 | > 133 | > 133 | > 133
CS(=O)(=O)OCCCCOS(C)(=O)=O [BUSULFAN] | > 133 | > 133 | > 133 | > 133
CCN(C(C)=O)c1cccc(-c2ccnc3c(C#N)cnn23)c1 [ZALEPLON] | > 133 | > 133 | > 133 | > 133
CN1C(=O)CC(=O)N(c2ccccc2)c2cc(Cl)ccc21 [CLOBAZAM] | > 133 | > 133 | > 133 | > 133
CN(C)c1cc(NC(=O)CNC(C)(C)C)c(O)c2c1C[C@H]1C[C@H]3[C@H](N(C)C)C(O)=C(C(N)=O)C(=O)[C@@]3(O)C(O)=C1C2=O [TIGECYCLINE] | > 133 | > 133 | > 133 | > 133
CCOC(=O)[N-]c1cn(N2CCOCC2)n[o+]1 [MOLSIDOMINE] | > 133 | > 133 | > 133 | > 133
COc1c(N2CCNC(C)C2)c(F)cc2c(=O)c(C(=O)O)cn(C3CC3)c12 (configuration not stated) [GATIFLOXACIN] | > 133 | > 133 | > 133 | > 133
COc1cc(Cc2cnc(N)nc2N)cc(OC)c1OC [TRIMETHOPRIM] | > 133 | > 133 | > 133 | > 133
Cc1cc(=O)n(-c2ccccc2)n1C [ANTIPYRINE] | > 133 | > 133 | > 133 | > 133
CN(C)C(=O)Oc1cccc([N+](C)(C)C)c1 [NEOSTIGMINE] | > 133 | > 133 | > 133 | > 133
CC[C@H]1OC(=O)[C@H](C)[C@@H](O[C@H]2C[C@@](C)(OC)[C@@H](O)[C@H](C)O2)[C@H](C)[C@@H](O[C@@H]2O[C@H](C)C[C@H](N(C)C)[C@H]2O)[C@](C)(O)C[C@@H](C)/C(=N\OCOCCOC)[C@H](C)[C@@H](O)[C@]1(C)O [ROXITHROMYCIN] | > 133 | > 133 | > 133 | > 133
CC(SC(=O)c1cccs1)C(=O)NCC(=O)O (configuration not stated) [STEPRONIN] | > 133 | > 133 | > 133 | > 133
CC(C(=O)O)c1ccc2c(c1)[nH]c1ccc(Cl)cc12 (configuration not stated) [CARPROFEN] | > 133 | > 133 | 3 | > 133
COc1cccc2c1C(=O)c1c(O)c3c(c(O)c1C2=O)C[C@@](O)(C(=O)CO)C[C@@H]3O[C@H]1C[C@H](N)[C@@H](O)[C@H](C)O1 [EPIRUBICIN HYDROCHLORIDE] | > 133 | > 133 | > 133 | > 133
Oc1c(I)cc(Cl)c2cccnc12 [CLIOQUINOL] | > 133 | > 133 | > 133 | > 133
COc1nc(N)nc2c1ncn2[C@@H]1O[C@H](CO)[C@@H](O)[C@@H]1O [NELARABINE] | > 133 | > 133 | > 133 | > 133
Cc1cnc(C(=O)O)c[n+]1[O-] [ACIPIMOX] | > 133 | > 133 | > 133 | > 133
CCOC(=O)c1ccc(N)cc1 [BENZOCAINE] | > 133 | > 133 | > 133 | > 133
CN(C)CCCN1c2ccccc2Sc2ccc(Cl)cc21 [CHLORPROMAZINE] | > 133 | > 133 | > 133 | > 133
